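Values below derive from 48-hour exposures of cells grown in 96-well plates, with endpoints linearly interpolated between the two concentrations bracketing the appropriate inhibition level. TGI is the concentration that stops growth completely.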
Key:
Assay in all cases: DTP human tumour cell line panel, 48 h
[1] = tested on: RXF-631 renal
[2] = tested on: SN12C renal
[3] = tested on: UO-31 renal
[4] = tested on: OVCAR-8 ovarian
[5] = tested on: HOP-92 NSCLC
[6] = tested on: A498 renal
[7] = tested on: IGROV1 ovarian
[8] = tested on: SNB-19 CNS
[9] = tested on: SK-MEL-28 melanoma
[10] = tested on: NCI-H23 lung
[11] = tested on: A549 NSCLC
[12] = tested on: RPMI-8226 leukemia
[13] = tested on: CCRF-CEM leukemia
[14] = tested on: OVCAR-3 ovarian
[15] = tested on: COLO 205 colon
[16] = tested on: 786-0 renal
[17] = tested on: SF-268 CNS
[18] = tested on: DLD-1 colon
[19] = tested on: UACC-62 melanoma
[20] = tested on: DMS 273 small cell lung
[21] = tested on: HOP-62 NSCLC
[22] = tested on: TK-10 renal
[23] = tested on: M14 melanoma
[24] = tested on: HT29 colon
[25] = tested on: HCC-2998 colon
[26] = tested on: EKVX NSCLC
[27] = tested on: SK-OV-3 ovarian
[28] = tested on: SF-295 CNS
[29] = tested on: SW-620 colon
[30] = tested on: KM12 colon
[31] = tested on: DMS 114 small cell lung
[32] = tested on: NCI-H522 lung
[33] = tested on: HCT-116 colon
[34] = tested on: M19-MEL melanoma
[35] = tested on: SK-MEL-2 melanoma
[36] = tested on: CAKI-1 renal
[37] = tested on: SR leukemia
[38] = tested on: XF 498 CNS
[39] = tested on: SF-539 CNS
[40] = tested on: K-562 leukemia
[41] = tested on: HL-60(TB) leukemia
[42] = tested on: NCI-H226 lung
[43] = tested on: LXFL 529 NSCLC
[44] = tested on: SNB-75 CNS
[45] = tested on: OVCAR-4 ovarian
[46] = tested on: MALME-3M melanoma
[47] = tested on: UACC-257 melanoma
[48] = tested on: MOLT-4 leukemia
[49] = tested on: ACHN renal
[50] = tested on: SK-MEL-5 melanoma
[51] = tested on: KM20L2 colon
[52] = tested on: LOX IMVI melanoma
[53] = tested on: HCT-15 colon
[54] = tested on: U251 CNS
[55] = tested on: NCI-H460 lung
[56] = tested on: RXF 393 renal
[57] = tested on: SNB-78 CNS
[58] = tested on: OVCAR-5 ovarian

`COc1ccc([C@@H]2C[C@@H]3C(=O)OC(=O)[C@@H]3c3c2c2ccccc2n3C)cc1` gave a TGI [1] greater than 100 µM, a TGI [2] greater than 100 µM and a TGI [3] greater than 100 µM. It also gave a TGI [4] greater than 100 µM, a TGI [5] greater than 100 µM and a TGI [6] greater than 100 µM. The TGI [7] was greater than 100 µM, the TGI [8] was greater than 100 µM and the TGI [9] was greater than 100 µM. The TGI [10] was greater than 100 µM, the TGI [11] was greater than 100 µM and the TGI [12] was greater than 100 µM. For the same compound, the TGI [13] was greater than 100 µM, the TGI [14] was greater than 100 µM and the TGI [15] was greater than 100 µM. It also gave a TGI [16] greater than 100 µM, a TGI [17] greater than 100 µM and a TGI [18] greater than 100 µM. It also gave a TGI [19] greater than 100 µM, a TGI [20] greater than 100 µM and a TGI [21] greater than 100 µM. The TGI [22] was greater than 100 µM, the TGI [23] was greater than 100 µM and the TGI [24] was greater than 100 µM. It also gave a TGI [25] greater than 100 µM, a TGI [26] greater than 100 µM and a TGI [27] greater than 100 µM. For the same compound, the TGI [28] was greater than 100 µM, the TGI [29] was greater than 100 µM and the TGI [30] was greater than 100 µM. The TGI [31] was greater than 100 µM, the TGI [32] was greater than 100 µM and the TGI [33] was greater than 100 µM. For the same compound, the TGI [34] was greater than 100 µM, the TGI [35] was greater than 100 µM and the TGI [36] was greater than 100 µM. The TGI [37] was greater than 100 µM, the TGI [38] was greater than 100 µM and the TGI [39] was greater than 100 µM. It also gave a TGI [40] greater than 100 µM, a TGI [41] greater than 100 µM and a TGI [42] greater than 100 µM. It also gave a TGI [43] greater than 100 µM, a TGI [44] greater than 100 µM and a TGI [45] greater than 100 µM. For the same compound, the TGI [46] was greater than 100 µM, the TGI [47] was greater than 100 µM and the TGI [48] was greater than 100 µM.

Work on `O=C1c2ccccc2C(=O)N1C/C=N/NS(=O)(=O)c1ccc(F)cc1` yielded a TGI [1] greater than 100 µM, a TGI [49] greater than 100 µM and a TGI [2] greater than 100 µM. For the same compound, the TGI [3] was greater than 100 µM, the TGI [4] was greater than 100 µM and the TGI [7] was greater than 100 µM. It also gave a TGI [50] greater than 100 µM, a TGI [8] greater than 100 µM and a TGI [10] greater than 100 µM. It also gave a TGI [11] greater than 100 µM, a TGI [12] greater than 100 µM and a TGI [51] greater than 100 µM. For the same compound, the TGI [13] was greater than 100 µM, the TGI [15] was greater than 100 µM and the TGI [52] was greater than 100 µM. It also gave a TGI [16] greater than 100 µM, a TGI [53] greater than 100 µM and a TGI [17] greater than 100 µM. The TGI [18] was greater than 100 µM, the TGI [19] was greater than 100 µM and the TGI [20] was greater than 100 µM. The TGI [22] was greater than 100 µM, the TGI [25] was greater than 100 µM and the TGI [26] was greater than 100 µM. It also gave a TGI [28] greater than 100 µM, a TGI [29] greater than 100 µM and a TGI [30] greater than 100 µM. For the same compound, the TGI [31] was greater than 100 µM, the TGI [32] was greater than 100 µM and the TGI [33] was greater than 100 µM. The TGI [34] was greater than 100 µM, the TGI [35] was greater than 100 µM and the TGI [36] was greater than 100 µM. It also gave a TGI [37] greater than 100 µM, a TGI [54] greater than 100 µM and a TGI [38] greater than 100 µM. For the same compound, the TGI [39] was greater than 100 µM, the TGI [40] was greater than 100 µM and the TGI [41] was greater than 100 µM. The TGI [42] was greater than 100 µM, the TGI [43] was greater than 100 µM and the TGI [44] was greater than 100 µM. The TGI [45] was greater than 100 µM, the TGI [46] was greater than 100 µM and the TGI [47] was greater than 100 µM. It also gave a TGI [48] greater than 100 µM.

With `O=C(c1ccc(Cl)cc1Cl)N(/N=C/C=C/c1ccccc1)c1nnc(-c2ccccc2)c(-c2ccccc2)n1` the TGI [1] was greater than 100 µM, the TGI [49] was greater than 100 µM and the TGI [2] was greater than 100 µM. For the same compound, the TGI [3] was greater than 100 µM, the TGI [4] was greater than 100 µM and the TGI [6] was greater than 100 µM. For the same compound, the TGI [55] was greater than 100 µM, the TGI [7] was greater than 100 µM and the TGI [56] was greater than 100 µM. For the same compound, the TGI [50] was greater than 100 µM, the TGI [8] was greater than 100 µM and the TGI [9] was greater than 100 µM. The TGI [10] was greater than 100 µM, the TGI [11] was greater than 100 µM and the TGI [12] was greater than 100 µM. For the same compound, the TGI [51] was greater than 100 µM, the TGI [13] was greater than 100 µM and the TGI [14] was greater than 100 µM. For the same compound, the TGI [15] was greater than 100 µM, the TGI [52] was greater than 100 µM and the TGI [57] was greater than 100 µM. It also gave a TGI [16] greater than 100 µM, a TGI [53] greater than 100 µM and a TGI [17] greater than 100 µM. It also gave a TGI [18] greater than 100 µM, a TGI [19] greater than 100 µM and a TGI [20] greater than 100 µM. It also gave a TGI [21] greater than 100 µM, a TGI [22] greater than 100 µM and a TGI [58] greater than 100 µM. For the same compound, the TGI [24] was greater than 100 µM, the TGI [25] was greater than 100 µM and the TGI [26] was greater than 100 µM. It also gave a TGI [27] greater than 100 µM, a TGI [28] greater than 100 µM and a TGI [29] greater than 100 µM. For the same compound, the TGI [30] was greater than 100 µM, the TGI [31] was greater than 100 µM and the TGI [32] was 82.5 µM. It also gave a TGI [34] greater than 100 µM, a TGI [35] greater than 100 µM and a TGI [54] greater than 100 µM. It also gave a TGI [38] greater than 100 µM, a TGI [39] greater than 100 µM and a TGI [40] greater than 100 µM. It also gave a TGI [41] greater than 100 µM, a TGI [42] greater than 100 µM and a TGI [44] greater than 100 µM. For the same compound, the TGI [45] was greater than 100 µM, the TGI [46] was greater than 100 µM and the TGI [47] was greater than 100 µM. For the same compound, the TGI [48] was greater than 100 µM.

Reference: PubChem BioAssay (NCI)
